Like-named read-outs stand apart in the source and are kept apart here.
Assays:
CYP3A4 = CYP3A4 (Homo sapiens, UniProt P08684); settings: in vitro; cited from earlier work
[1] = for AUC(0-inf) / AUC(0-t) / half-life / Tmax: male, human, in vivo; for AUC(0-inf): AUCinf; for AUC(0-inf) / AUC(0-t): geometric mean; for AUC(0-t): AUClast; for half-life: t 1/2, geometric mean
CYP1A2 = settings: cited from earlier work
CYP enzyme = settings: in vitro studies; cited from earlier work
CYP2C9 = CYP2C9 (Homo sapiens, UniProt P11712); settings: in vitro; cited from earlier work
Chain of CYP2C9 (P11712 whole entry): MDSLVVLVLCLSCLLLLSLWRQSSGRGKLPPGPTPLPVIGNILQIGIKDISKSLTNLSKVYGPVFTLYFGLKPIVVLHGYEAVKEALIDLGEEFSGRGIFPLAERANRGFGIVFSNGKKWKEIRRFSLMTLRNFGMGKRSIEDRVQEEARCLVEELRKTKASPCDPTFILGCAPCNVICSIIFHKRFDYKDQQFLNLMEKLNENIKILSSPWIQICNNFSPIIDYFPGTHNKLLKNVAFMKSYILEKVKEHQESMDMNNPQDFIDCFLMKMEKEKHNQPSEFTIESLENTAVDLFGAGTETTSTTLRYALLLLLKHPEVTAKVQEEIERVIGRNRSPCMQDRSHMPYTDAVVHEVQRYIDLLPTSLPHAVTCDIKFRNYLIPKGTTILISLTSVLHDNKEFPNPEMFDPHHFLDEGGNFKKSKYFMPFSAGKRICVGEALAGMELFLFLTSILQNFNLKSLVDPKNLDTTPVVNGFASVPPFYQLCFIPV

[2] = healthy male subjects, plasma, after 2 weeks of fermented red ginseng
[3] = healthy male subjects, plasma, before fermented red ginseng
[4] = After FRG, healthy male subjects, plasma, after 2 weeks of fermented red ginseng
[5] = Before FRG, healthy male subjects, plasma, before fermented red ginseng
[6] = t max (median), Before FRG, healthy male subjects, plasma, before fermented red ginseng
[7] = t max (median), After FRG, healthy male subjects, plasma, after 2 weeks of fermented red ginseng

Chain of CYP3A4 (P08684 whole entry): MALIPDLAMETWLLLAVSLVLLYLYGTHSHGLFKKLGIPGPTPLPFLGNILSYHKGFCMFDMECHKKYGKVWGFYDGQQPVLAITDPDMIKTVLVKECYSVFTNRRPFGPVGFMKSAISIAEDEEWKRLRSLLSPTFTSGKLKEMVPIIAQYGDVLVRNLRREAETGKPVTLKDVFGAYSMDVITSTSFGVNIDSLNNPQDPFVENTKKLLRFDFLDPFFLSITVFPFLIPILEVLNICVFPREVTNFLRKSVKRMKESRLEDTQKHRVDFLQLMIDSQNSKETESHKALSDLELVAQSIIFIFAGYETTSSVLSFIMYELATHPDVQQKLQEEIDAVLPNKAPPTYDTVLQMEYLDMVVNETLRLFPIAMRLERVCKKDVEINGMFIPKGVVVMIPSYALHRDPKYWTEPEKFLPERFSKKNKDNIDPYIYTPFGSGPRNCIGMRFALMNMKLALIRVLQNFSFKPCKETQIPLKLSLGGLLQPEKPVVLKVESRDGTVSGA

## CC(C)=CCCC(C)(O)[C@H]1CC[C@]2(C)[C@@H]1[C@H](O)C[C@@H]1[C@@]3(C)CC[C@H](O)C(C)(C)[C@@H]3CC[C@]12C (stereo in doubt) [PPD, protopanaxadiol]
CYP3A4
  inhibition of CYP3A4 activity: potent inhibition

## OCc1ncc2n1-c1ccc(Cl)cc1C(c1ccccc1F)=NC2 [1‐hydroxymidazolam]
[1]; healthy male subjects, plasma
  AUCinf, geometric mean ratio, After FRG: Before FRG (90% CI): 0.924 (0.791–1.080)
  AUClast, geometric mean ratio, After FRG: Before FRG (90% CI): 0.944 (0.805–1.107)
  C max, geometric mean ratio, After FRG: Before FRG (90% CI): 0.750 (0.583–0.966)
[1]; [2]
  AUCinf, geometric mean, After FRG: 74.221 ng·h/mL
  AUClast, geometric mean, After FRG: 69.474 ng·h/mL
  t 1/2, geometric mean, After FRG: 0.678 h
  t max (median), After FRG: 0.517 h
[1]; [3]
  AUCinf, geometric mean, Before FRG: 80.311 ng·h/mL
  AUClast, geometric mean, Before FRG: 73.587 ng·h/mL
  t 1/2, geometric mean, Before FRG: 0.728 h
  t max (median), Before FRG: 0.500 h

## COc1ccc2nc([S+]([O-])Cc3ncc(CO)c(OC)c3C)[nH]c2c1 (stereo not shown) [5‐hydroxyomeprazole]
[1]; healthy male subjects, plasma
  AUCinf, geometric mean ratio, After FRG: Before FRG (90% CI): 1.050 (0.961–1.147)
  AUClast, geometric mean ratio, After FRG: Before FRG (90% CI): 0.979 (0.918–1.045)
  C max, geometric mean ratio, After FRG: Before FRG (90% CI): 0.945 (0.859–1.039)
[1]; [2]
  AUCinf, geometric mean, After FRG: 283.859 ng·h/mL
  AUClast, geometric mean, After FRG: 239.033 ng·h/mL
  t 1/2, geometric mean, After FRG: 2.716 h
  t max (median), After FRG: 3.000 h
[1]; [3]
  AUCinf, geometric mean, Before FRG: 270.368 ng·h/mL
  AUClast, geometric mean, Before FRG: 244.051 ng·h/mL
  t 1/2, geometric mean, Before FRG: 1.971 h
  t max (median), Before FRG: 3.000 h

## Cn1c(=O)c2c(ncn2C)n(C)c1=O [Caffeine, caffeine]
[1]; healthy male subjects, plasma
  AUCinf, geometric mean ratio, After FRG: Before FRG (90% CI): 1.165 (1.002–1.356)
  AUClast, geometric mean ratio, After FRG: Before FRG (90% CI): 1.128 (0.997–1.277)
  C max, geometric mean ratio, After FRG: Before FRG (90% CI): 1.002 (0.857–1.171)
[1]; [4]
  AUC(0-inf): 57500 ng·h/mL
  AUC(0-t): 51300 ng·h/mL
  half-life: 6.94 h
[1]; [5]
  AUC(0-inf): 49300 ng·h/mL
  AUC(0-t): 45500 ng·h/mL
  half-life: 5.5 h
[1]; [6]
  Tmax: 0.5 h
CYP1A2
  fraction metabolized to paraxanthine by CYP1A2: over 95%

## COc1ccc2c(c1)[C@]13CCCC[C@@H]1[C@H](C2)N(C)CC3 [Dextromethorphan, dextromethorphan]
[1]; healthy male subjects, plasma
  AUCinf, geometric mean ratio, After FRG: Before FRG (90% CI): 0.869 (0.638–1.184)
  AUClast, geometric mean ratio, After FRG: Before FRG (90% CI): 0.907 (0.681–1.209)
  C max, geometric mean ratio, After FRG: Before FRG (90% CI): 0.849 (0.688–1.047)
[1]; [2]
  t 1/2, geometric mean, After FRG: 7.006 h
[1]; [3]
  t 1/2, geometric mean, Before FRG: 7.540 h
[1]
  Tmax: 2 h
[1]; [4]
  AUC(0-inf): 43.5 ng·h/mL
  AUC(0-t): 17.1 ng·h/mL
[1]; [5]
  AUC(0-inf): 50.1 ng·h/mL
  AUC(0-t): 18.9 ng·h/mL

## CN1CC[C@@]23CCCC[C@@H]2[C@@H]1Cc1ccc(O)cc13 [Dextrorphan, dextrorphan]
[1]; healthy male subjects, plasma
  AUCinf, geometric mean ratio, After FRG: Before FRG (90% CI): 1.042 (0.932–1.164)
  AUClast, geometric mean ratio, After FRG: Before FRG (90% CI): 1.044 (0.926–1.176)
  C max, geometric mean ratio, After FRG: Before FRG (90% CI): 1.024 (0.876–1.198)
[1]; [3]
  t max (median), Before FRG: 2.000 h
[1]; [4]
  AUC(0-inf): 66.1 ng·h/mL
  AUC(0-t): 60.3 ng·h/mL
  half-life: 3.43 h
[1]; [5]
  AUC(0-inf): 63.5 ng·h/mL
  AUC(0-t): 57.7 ng·h/mL
  half-life: 3.92 h

## CCCCc1nc(Cl)c(C(=O)O)n1Cc1ccc(-c2ccccc2-c2nn[nH]n2)cc1 [EXP3174]
[1]; healthy male subjects, plasma
  AUCinf, geometric mean ratio, After FRG: Before FRG (90% CI): 0.813 (0.687–0.963)
  AUClast, geometric mean ratio, After FRG: Before FRG (90% CI): 0.811 (0.684–0.963)
  C max, geometric mean ratio, After FRG: Before FRG (90% CI): 0.832 (0.694–0.997)
[1]; [4]
  AUC(0-inf): 2610 ng·h/mL
  AUC(0-t): 2500 ng·h/mL
[1]; [5]
  AUC(0-inf): 3210 ng·h/mL
  AUC(0-t): 3080 ng·h/mL
[1]; [7]
  Tmax: 4 h
[1]; [6]
  Tmax: 3 h

## CCCCc1nc(Cl)c(CO)n1Cc1ccc(-c2ccccc2-c2nn[nH]n2)cc1 [Losartan, losartan]
[1]; healthy male subjects, plasma
  AUCinf, geometric mean ratio, After FRG: Before FRG (90% CI): 1.047 (0.887–1.237)
  AUClast, geometric mean ratio, After FRG: Before FRG (90% CI): 1.048 (0.887–1.239)
  C max, geometric mean ratio, After FRG: Before FRG (90% CI): 0.974 (0.797–1.190)
[1]; [4]
  AUC(0-inf): 549 ng·h/mL
  AUC(0-t): 542 ng·h/mL
  half-life: 1.94 h
[1]; [5]
  AUC(0-inf): 524 ng·h/mL
  AUC(0-t): 517 ng·h/mL
  half-life: 1.86 h
[1]; [7]
  Tmax: 1.5 h
[1]; [6]
  Tmax: 1.5 h

## Cc1ncc2n1-c1ccc(Cl)cc1C(c1ccccc1F)=NC2 [Midazolam, midazolam]
[1]; healthy male subjects, plasma
  AUCinf, geometric mean ratio, After FRG: Before FRG (90% CI): 1.138 (1.007–1.285)
  AUClast, geometric mean ratio, After FRG: Before FRG (90% CI): 1.157 (1.022–1.309)
  C max, geometric mean ratio, After FRG: Before FRG (90% CI): 0.873 (0.732–1.041)
[1]; [4]
  AUC(0-inf): 126 ng·h/mL
  AUC(0-t): 119 ng·h/mL
  half-life: 2.96 h
[1]; [5]
  AUC(0-inf): 110 ng·h/mL
  AUC(0-t): 103 ng·h/mL
  half-life: 3.3 h

## COc1ccc2[nH]c([S+]([O-])Cc3ncc(C)c(OC)c3C)nc2c1 (stereo not shown) [Omeprazole, omeprazole]
[1]; healthy male subjects, plasma
  AUCinf, geometric mean ratio, After FRG: Before FRG (90% CI): 0.936 (0.819–1.069)
  AUClast, geometric mean ratio, After FRG: Before FRG (90% CI): 0.931 (0.812–1.067)
  C max, geometric mean ratio, After FRG: Before FRG (90% CI): 0.892 (0.747–1.066)
[1]; [3]
  t max (median), Before FRG: 2.000 h
[1]; [4]
  AUC(0-inf): 1280 ng·h/mL
  AUC(0-t): 1260 ng·h/mL
  half-life: 1.22 h
[1]; [5]
  AUC(0-inf): 1370 ng·h/mL
  AUC(0-t): 1350 ng·h/mL
  half-life: 1.19 h

## CC(C)=CCC[C@](C)(O)[C@H]1CC[C@]2(C)[C@@H]1[C@H](O)C[C@@H]1[C@@]3(C)CC[C@H](O)C(C)(C)[C@@H]3[C@@H](O)C[C@]12C [PPT, protopanaxatriol]
CYP3A4
  inhibition of CYP3A4 activity: potent inhibition

## Cn1c(=O)[nH]c2ncn(C)c2c1=O [Paraxanthine, paraxanthine]
[1]; healthy male subjects, plasma
  AUCinf, geometric mean ratio, After FRG: Before FRG (90% CI): 1.432 (1.125–1.823)
  AUClast, geometric mean ratio, After FRG: Before FRG (90% CI): 1.017 (0.943–1.096)
  C max, geometric mean ratio, After FRG: Before FRG (90% CI): 0.979 (0.906–1.057)
[1]; [4]
  AUC(0-inf): 53900 ng·h/mL
  AUC(0-t): 24600 ng·h/mL
  half-life: 20.7 h
[1]; [5]
  AUC(0-inf): 37600 ng·h/mL
  AUC(0-t): 24200 ng·h/mL
  half-life: 11.8 h
[1]; [7]
  Tmax: 6 h

## CC(C)=CCC[C@](C)(O[C@@H]1O[C@H](CO[C@@H]2OC[C@H](O)[C@H](O)[C@H]2O)[C@@H](O)[C@H](O)[C@H]1O)[C@H]1CC[C@]2(C)[C@@H]1[C@H](O)C[C@@H]1[C@@]3(C)CC[C@H](O[C@@H]4O[C@H](CO)[C@@H](O)[C@H](O)[C@H]4O[C@@H]4O[C@H](CO)[C@@H](O)[C@H](O)[C@H]4O)C(C)(C)[C@@H]3CC[C@]12C [Rb2, ginsenoside Rb2]
CYP enzyme
  effect on CYP enzyme activity: do not affect

## CC(C)=CCC[C@](C)(O[C@@H]1O[C@H](CO[C@@H]2O[C@@H](CO)[C@H](O)[C@H]2O)[C@@H](O)[C@H](O)[C@H]1O)[C@H]1CC[C@]2(C)[C@@H]1[C@H](O)C[C@@H]1[C@@]3(C)CC[C@H](O[C@@H]4O[C@H](CO)[C@@H](O)[C@H](O)[C@H]4O[C@@H]4O[C@H](CO)[C@@H](O)[C@H](O)[C@H]4O)C(C)(C)[C@@H]3CC[C@]12C [Rc, ginsenoside Rc]
CYP enzyme
  effect on CYP enzyme activity: do not affect

## CC(C)=CCC[C@](C)(O[C@@H]1O[C@H](CO)[C@@H](O)[C@H](O)[C@H]1O)[C@H]1CC[C@]2(C)[C@@H]1[C@H](O)C[C@@H]1[C@@]3(C)CC[C@H](O)C(C)(C)[C@@H]3[C@@H](O[C@@H]3O[C@H](CO)[C@@H](O)[C@H](O)[C@H]3O)C[C@]12C [Rg1, ginsenoside Rg1]
CYP enzyme
  effect on CYP enzyme activity: do not affect

## CC(C)=CCC[C@](C)(O[C@@H]1O[C@H](CO)[C@@H](O)[C@H](O)[C@H]1O)[C@H]1CC[C@]2(C)[C@@H]1[C@H](O)C[C@@H]1[C@@]3(C)CC[C@H](O)C(C)(C)[C@@H]3CC[C@]12C [compound K, 20‐O‐(β‐D‐glucopyranosyl)‐20(S)‐protopanaxadiol]
CYP3A4
  inhibition of CYP3A4 activity: moderate inhibition
CYP2C9
  inhibition of CYP2C9 activity: moderate inhibition

## CC(C)=CCC[C@](C)(O[C@@H]1O[C@H](CO[C@@H]2O[C@H](CO)[C@@H](O)[C@H](O)[C@H]2O)[C@@H](O)[C@H](O)[C@H]1O)[C@H]1CC[C@]2(C)[C@@H]1[C@H](O)C[C@@H]1[C@@]3(C)CC[C@H](O[C@@H]4O[C@H](CO)[C@@H](O)[C@H](O)[C@H]4O[C@@H]4O[C@H](CO)[C@@H](O)[C@H](O)[C@H]4O)C(C)(C)[C@@H]3CC[C@]12C [ginsenoside Rb1]
CYP enzyme
  effect on CYP enzyme activity: do not affect

## CC(C)=CCC[C@](C)(O)[C@H]1CC[C@]2(C)[C@@H]1[C@H](O)C[C@@H]1[C@@]3(C)CC[C@H](O[C@@H]4O[C@H](CO)[C@@H](O)[C@H](O)[C@H]4O)C(C)(C)[C@@H]3CC[C@]12C [ginsenoside Rh2]
CYP3A4
  inhibition of CYP3A4 activity: moderate inhibition
CYP2C9
  inhibition of CYP2C9 activity: moderate inhibition
